# Source: article PMC11414077, “Novel thiazole-based cyanoacrylamide derivatives: DNA cleavage, DNA/BSA binding properties and their anticancer behaviour against colon and breast cancer cells” (BMC Chemistry, 2024)
# What was measured:
# CT-DNA-EtBr = test: Ethidium bromide quenching (displacement) assay; type: binding, calf; conditions: for kq / KSV: CT-DNA-EtBr; for kq: τ0 10^−8 s; for reduction in fluorescence intensity: EtBr 20 µM, CT-DNA 100 µM, 3b 0–160 µM, 3c 0–80 µM; for KSV: Stern–Volmer, room temperature
# Protocol: EtBr is a conventional intercalator whose fluorescence intensity intensifies in response to CT-DNA interaction. Solution of CT-DNA-EtBr with final concentrations of EtBr (20 µM) and CT-DNA (100 µM) in Tris–HCl buffer solution (pH = 7.1) was prepared, then compounds were solubilized in DMSO, added to the prepared solution to attain a range of concentration (0–160 µM) and (0–80 µM) for 3b and 3c, respectively. Then, the mixtures were incubated 3 min after each addition and the emission spectra (540–710 nm) were recorded using an excitation wavelength of 520 nm.
# The interaction mode between compound and CT-DNA can be discriminated through fluorescence spectroscopy with the EtBr–CT-DNA system. EtBr is a classic indicator of intercalation where an intense fluorescence signal is emitted from the EtBr-CT-DNA system through intercalation of EtBr between adjacent DNA base pairs with no obvious signal for unaccompanied EtBr. […] The Stern–Volmer equation was used for the study of the effect of quenchers on the CT-DNA-EtBr system. F0/F= 1+KsvQ= 1+kqτ0[Q] where F0 and F are fluorescence intensities in the absence and presence of the compound used for quenching, respectively; KSV is a linear Stern–Volmer quenching constant; [Q] is the concentration of the quenching compound and τ0 is the fluorescence lifetime of the fluorophore (10^−8 s) in absence of the compound responsible for quenching. KSV for 3b and 3c is computed from the linear regression plot of F0/F against [Q]. Also, the binding constant (Kb) and the number of binding sites (n) were determined by the Scatchard method.
# log((F0-F)/F)=logKb+nlog[Q]
# Kb has been assigned as the intercept and n as the slope in the linear plotting of log((F0–F)/F) versus log[Q]. The detailed results for 3b and 3c were computed and depicted in Table 1.
# BSA [1] = target: T1, BSA (Bos taurus, UniProt P02769); test: BSA UV-Visible absorption spectrophotometric titration; type: binding, bovine; conditions: at 277 nm, BSA 15 μM, compound 0–40 μM
# T1 construct: purchased BioBasic Inc. (Canada)
# T1 sequence (P02769 25-607): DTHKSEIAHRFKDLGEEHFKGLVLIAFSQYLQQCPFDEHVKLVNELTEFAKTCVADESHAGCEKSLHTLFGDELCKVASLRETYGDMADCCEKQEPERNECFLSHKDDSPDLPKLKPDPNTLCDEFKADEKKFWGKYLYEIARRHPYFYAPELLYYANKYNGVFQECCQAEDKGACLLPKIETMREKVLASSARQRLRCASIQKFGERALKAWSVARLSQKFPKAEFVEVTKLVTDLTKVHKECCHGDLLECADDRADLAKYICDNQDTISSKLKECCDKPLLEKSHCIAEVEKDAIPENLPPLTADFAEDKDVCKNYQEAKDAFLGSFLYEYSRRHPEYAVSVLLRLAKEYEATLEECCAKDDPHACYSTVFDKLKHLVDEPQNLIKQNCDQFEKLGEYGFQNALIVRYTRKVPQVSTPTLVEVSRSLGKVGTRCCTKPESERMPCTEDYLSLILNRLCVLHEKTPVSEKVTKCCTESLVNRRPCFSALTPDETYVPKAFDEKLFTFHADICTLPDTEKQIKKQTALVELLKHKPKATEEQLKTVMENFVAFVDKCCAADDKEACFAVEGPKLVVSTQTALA
# Protocol: BSA was dissolved in Tris/NaCl buffer (pH 7.1) to prepare the BSA stock solution, which was then kept at 4°C and utilized within a week after preparation. The concentration was evaluated by applying the equation C=A280nm/ε×b where C is the concentration of protein solution, A is the absorbance at wavelength 280 nm, b is the path length and ε is molar extinction coefficient of protein that equals 44,300 M^−1 cm^−1.
# The interaction was evaluated through dilution of BSA to 15 μM in Tris/NaCl (pH 7.1) during the spectrophotometric titration. After that, the compounds dissolved in DMSO were added with a range of increasing concentration (0–40 μM), where the final DMSO percentage is 5%. UV–Vis absorption spectrum measurement for each concentration was assessed by Shimadzu UV-3101 PC NIR spectrophotometer after 3 min of each addition. The Kb for compounds 3b and 3c was calculated using equation [54]: 1/Aobs-A0=1/Ac-A0+1/KbAc-A0[compound] where A0, Aobs and Ac are absorbance of solution in the absence, various concentrations, and saturation of the compound at the characteristic peak, respectively. Where Kb is estimated from the plot of 1/Aobs-A0 versus 1/[Drug] .
# HCT116 cells = test: MTT cell viability assay, HCT116; type: cell-based; conditions: Homo sapiens, HCT-116; HCT116, absence of illumination (dark)
# Protocol: (§1) The cytotoxicity of 3b and 3c against MDA-MB-231 and HCT116 cell lines, with and without illumination, was assessed using the MTT test. Two human cancer cell lines, including MDA-MB-231 and HCT116 cell lines, were purchased from the National Research Centre, Dokki, Cairo, Egypt. Briefly, 96-well plates were seeded with cells (5 × 10^3 cells/well) and left overnight. The compounds dissolved in DMSO were then applied to the cells following the serial dilution procedure in the range of 0–100 µM. The cells were then incubated for an additional 20 h. Subsequently, the cells were exposed to UV light for 20 min at a distance of 10 cm. To study the effects of the illumination, a control plate was created under the same circumstances but without illumination. The two plates were incubated for a further 20 h. After that, PBS was used to wash the cells and MTT solution (0.5 mg/ml) was added. To dissolve the generated formazan crystals, the solution was replaced with 100 µl of DMSO per well after 4 h of incubation. An ELISA reader operating at 492 nm was used to measure the absorbance after 15 min of plate shaking. By relating the absorbance of treated and negative control cells, the relative cell viability was calculated. GraphPad Prism software was used to calculate the half inhibitory concentration (IC50). Doxorubicin (0–100 μM) was utilized as a positive cytotoxicity control in the usual dark environment, while the vehicle (DMSO, 0.1%) was used as a negative control.
# CT-DNA = CT-DNA UV-Visible absorption spectrophotometric titration; type: binding, calf; conditions: compound 25 μM, CT-DNA 0–60 μM; peak 423 nm (3b), 359 nm (3c)
# Protocol: CT-DNA stock solution was prepared by dissolving CT-DNA in Tris/NaCl buffer (pH 7.1). Then, it was stored at 4°C and was manipulated within 4 days of preparation. The concentration was estimated by applying the equation C=A260nm/ε×b where C is the concentration of DNA solution, A is the absorbance at wavelength 260 nm, b is the path length and ε is the molar extinction coefficient of DNA that equals 6600 M^−1 cm^−1. The purity also was calculated using the absorbance ratio at wavelength 260 and 280 respectively, which was 1.8 indicating free DNA from protein contamination. Stock solutions of compounds 3b and 3c were prepared by dissolving in DMSO.
# The interaction between the selected compounds (3b and 3c) and CT-DNA was assessed through the spectrophotometric titration method. In brief, a fixed concentration of compounds (25 μM) was mixed with an accumulative addition of CT-DNA (0–60 μM) at room temperature with a constant DMSO percentage of 5%. After 5 min from each addition, the UV–Vis absorption spectrum (250–650 nm) was recorded. The hyper/hypochromic percentage change at the characteristic peak of 3b and 3c was assessed using the formula: H%=Afree-Abound/Abound×100 . […] Standard Gibbs free energy (ΔG°) was calculated using the equation ΔG° = − RTlnKb (where T is the temperature, 298 K; R is the universal gas constant, 8.314 J K^−1 mol^−1).
# BSA [2] = target: T1, BSA; test: Tryptophan quenching assay with BSA; type: binding, bovine; conditions: for kq / n (binding site numbers) / Kb: BSA; for n (binding site numbers) / Kb: Scatchard method; for Kb / KSV: room temperature; for KSV: Stern–Volmer, BSA 15 µM, λex 289 nm
# Protocol: BSA (15 µM) solution was prepared in Tris/HCl buffer solution (pH = 7.1) and mixed with serial concentrations of compounds 3b and 3c (0–40 µM), achieving 5% final concentration of DMSO. Following 3 min incubation after each addition, fluorescence quenching spectra were recorded from 300 to 450 nm using a spectrofluorometer with an excitation wavelength of 289 nm.
# Fluorescence investigations could be used to conduct a specified analysis of whether synthetic molecules bind to biomolecules as BSA. It is widely perceived that predominantly tryptophan (Trp) is responsible for the inherited fluorescence among the other two amino acids [tyrosine (Tyr) and phenylalanine (Phe)] in the BSA [88]. The tryptophan emission spectrum is frequently altered because of protein conformational variation, subunit interactions, substrate binding, or denaturation. Reduced fluorescence emission intensity is observed for 3b and 3c, which may be due to disrupted BSA structure altering the tryptophan microenvironments. Moreover, the internalization of fluorophore residues into the protein's hydrophobic core is due to protein folding or related to the hydrophobic amino acid residues around Trp, such as Leu, Tyr, and phe. […] Also, a linear plot of F0/F against the concentration of 3b and 3c was used for computing the values of KSV (9.0 × 10^4 and 9.9 × 10^4 M^−1) and kq (9.0 × 10^12 and 9.9 × 10^12 M^−1 s^−1) for the titled compounds (3b and 3c, respectively). […] The negative values of ΔG also supported the UV–Vis results of free energy changes and implied the spontaneity of 3b/3c–BSA binding, where the interaction parameters were illustrated in Table 2.
# MDA-MB-231 cells = test: MTT cell viability assay, MDA-MB-231; type: cell-based; conditions: Homo sapiens; MDA-MB-231, dark conditions
# Protocol: as §1
SMILES,kq (CT-DNA-EtBr),reduction in fluorescence intensity (CT-DNA-EtBr),KSV (CT-DNA-EtBr),hyperchromicity (BSA [1]),IC50 (HCT116 cells),hypochromism (CT-DNA),kq (BSA [2]),n (binding site numbers) (BSA [2]),Kb (BSA [2]),KSV (BSA [2]),IC50 (MDA-MB-231 cells),melting point
"N#CC(=Cc1cn(-c2ccccc2)nc1-c1cccs1)C(=O)Nc1nccs1 [Compound 3b, 2-Cyano-3-(1-phenyl-3-(thiophen-2-yl)-1H-pyrazol-4-yl)-N-(thiazol-2-yl)acrylamide]",2.9e+11 M⁻¹ s⁻¹,~ 33.3%,2900 M⁻¹,~ 52.2%,72 µM,~ 14%,9e+12 M⁻¹ s⁻¹,1.3,30 M⁻¹,90000 M⁻¹,91 µM,252 to 256 °C
"N#CC(=Cc1cn(-c2ccccc2)nc1-c1cccnc1)C(=O)Nc1nccs1 [Compound 3c, 2-Cyano-3-(1-phenyl-3-(pyridin-3-yl)-1H-pyrazol-4-yl)-N-(thiazol-2-yl)acrylamide]",5.6e+11 M⁻¹ s⁻¹,~ 30.7%,5600 M⁻¹,~ 48.2%,82 µM,~ 40%,9.9e+12 M⁻¹ s⁻¹,1.3,34 M⁻¹,99000 M⁻¹,64 µM,250 to 252 °C
"Cc1ccc(-c2nn(-c3ccccc3)cc2C=C(C#N)C(=O)Nc2nccs2)cc1 [Compound 3d, 2-Cyano-3-(1-phenyl-3-(p-tolyl)-1H-pyrazol-4-yl)-N-(thiazol-2-yl)acrylamide]",–,–,–,–,–,–,–,–,–,–,–,255 to 257 °C
"N#CC(=Cc1cn(-c2ccccc2)nc1-c1ccc(Cl)cc1)C(=O)Nc1nccs1 [Compound 3f, 3-(3-(4-Chlorophenyl)-1-phenyl-1H-pyrazol-4-yl)-2-cyano-N-(thiazol-2-yl)acrylamide]",–,–,–,–,–,–,–,–,–,–,–,270 to 272 °C
"COc1cccc2c1C(=O)c1c(O)c3c(c(O)c1C2=O)C[C@@](O)(C(=O)CO)C[C@@H]3O[C@H]1C[C@H](N)[C@H](O)[C@H](C)O1 [doxorubicin, reference compound]",–,–,–,–,40 µM,–,–,–,–,–,64.8 µM,–
